The values that follow come from patent publication US4266001A, “Light-sensitive mixture” (Hoechst Aktiengesellschaft, priority 1978, dated 1981).

The structures appear in SMILES notation.

A short description of this data set: Solubility of naphthoquinone diazides in ethylene glycol monomethyl ether. The format is physicochemical. Particulars: for Solubility (%): 26° C., stirred for 2 hours, 2 g in 50 g, crystalline samples, substantially free from amorphous fractions; for solubility (in words): Table 2. As to the method:
The solubility of the new naphthoquinone diazides, as compared with the known bis-1,2-naphthoquinone-2-diazide-5-sulfonic acid ester of 2,2-bis-(4-hydroxyphenyl)-propane (comparison compound V), was determined as follows: 2 g of the naphthoquinone diazide were suspended in each case in 50 g of ethylene glycol monomethyl ether and stirred for 2 hours at 26° C. Then, the mixture was filtered by suction, the filter residue was washed successively with 10 cm^3 of methanol and 10 cm^3 of ether and dried in vacuo and its weight was determined. The solubilities in ethylene glycol monomethyl ether, listed in Table 2, were calculated from the difference to the quantity employed: […]
In all cases, it was confirmed by diffraction diagrams taken with an X-ray diffractometer that the samples tested were substantially free from amorphous fractions. In every case, the solubility of a solid compound which is wholly or partially present in the amorphous state is markedly higher than that of the corresponding crystalline compound. A comparison with these values is, however, unreliable because the solubilities of amorphous compounds cannot be determined with exact reproducibility due to the differing tendency of supersaturated solutions to crystallize.

Regarding `COCCOC(=O)CCC(C)(c1ccc(OS(=O)(=O)c2cccc3c2C=CC(=[N+]=[N-])C3=O)cc1)c1ccc(OS(=O)(=O)c2cccc3c2C=CC(=[N+]=[N-])C3=O)cc1` (centres unmarked) [Compound 7], the “Solubility (%)” value is reported as 0.91%.
Turning to `CCOCCOC(=O)C(c1ccc(OS(=O)(=O)c2cccc3c2C=CC(=[N+]=[N-])C3=O)cc1)c1ccc(OS(=O)(=O)c2cccc3c2C=CC(=[N+]=[N-])C3=O)cc1` (centres unmarked) [Compound 22], the “Solubility (%)” value stood at 6.0% and the “solubility (in words)” value was “very good solubility”.
On to `CCCOC(=O)C(c1ccc(OS(=O)(=O)c2cccc3c2C=CC(=[N+]=[N-])C3=O)cc1)c1ccc(OS(=O)(=O)c2cccc3c2C=CC(=[N+]=[N-])C3=O)cc1` (centres unmarked) [Compound 19], for which the “Solubility (%)” value was 0.95%.
With `COC(C)CCOC(=O)CCC(C)(c1ccc(OS(=O)(=O)c2cccc3c2C=CC(=[N+]=[N-])C3=O)cc1)c1ccc(OS(=O)(=O)c2cccc3c2C=CC(=[N+]=[N-])C3=O)cc1` (centres unmarked) [Compound 9], the “Solubility (%)” value was 1.54% and the “solubility (in words)” value was “very good solubility”.
Turning to `CCCCOC(=O)C(c1ccc(OS(=O)(=O)c2cccc3c2C=CC(=[N+]=[N-])C3=O)cc1)c1ccc(OS(=O)(=O)c2cccc3c2C=CC(=[N+]=[N-])C3=O)cc1` (centres unmarked) [Compound 20], the “Solubility (%)” value was more than 7.4% and the “solubility (in words)” value is recorded as “very good solubility”.
With `CCOC(=O)CCC(C)(c1ccc(OS(=O)(=O)c2cccc3c2C=CC(=[N+]=[N-])C3=O)cc1)c1ccc(OS(=O)(=O)c2cccc3c2C=CC(=[N+]=[N-])C3=O)cc1` (centres unmarked) [Compound 3], the “Solubility (%)” value worked out at 0.86%.
On to `CCOCCOC(=O)CCC(C)(c1ccc(OS(=O)(=O)c2cccc3c2C=CC(=[N+]=[N-])C3=O)cc1)c1ccc(OS(=O)(=O)c2cccc3c2C=CC(=[N+]=[N-])C3=O)cc1` (centres unmarked) [Compound 8], for which the “Solubility (%)” value is 3.80% and the “solubility (in words)” value is recorded as “very good solubility”.
In the same order, the values of `COC(=O)CCC(C)(c1ccc(OS(=O)(=O)c2cccc3c2C=CC(=[N+]=[N-])C3=O)cc1)c1ccc(OS(=O)(=O)c2cccc3c2C=CC(=[N+]=[N-])C3=O)cc1` (centres unmarked) [Compound 2] are 1.85% and “very good solubility”.
On to `CC(C)(c1ccc(OS(=O)(=O)c2cccc3c2C=CC(=[N+]=[N-])C3=O)cc1)c1ccc(OS(=O)(=O)c2cccc3c2C=CC(=[N+]=[N-])C3=O)cc1` [V, bis-1,2-naphthoquinone-2-diazide-5-sulfonic acid ester of 2,2-bis-(4-hydroxyphenyl)-propane, reference compound], for which the “Solubility (%)” value is given as 0.75%.
